Values of other authors as cited in patent US20100086625A1, “METHODS FOR TREATING SKIN LESIONS” (priority 2008, published 2010).

Tested on: cold sores
Conditions: oral

## CC(=O)OCC(CCn1cnc2cnc(N)nc21)COC(C)=O [famciclovir]
1500 mg
  shortening of the herpes infection: two

## CC(C)[C@H](N)C(=O)OCCOCn1cnc2c(=O)[nH]c(N)nc21 [valacyclovir]
2 gm twice a day for one day
  shortening of a herpes infection: over one
